# Measurements: patent publication US8999358B2, “Aqueous insecticidal compositions and the use thereof for protecting lignocellulose-containing materials” (BASF Aktiengesellschaft, priority 2005, dated 2015)
# Test system: wood-destroying soil-dwelling termites (Reticulitermes santonensis)
# Experiment: Laboratory termite resistance test of treated wood specimens (AWPA E1-97) after leaching according to DIN EN 84
# Format: in vivo
# Details: Test termite R. santonensis; Pinus spp. (Southern Yellow Pine) specimens 25x25x6 mm^3; AWPA E1-97, 4 weeks; α-cypermethrin concentration in wood giving score 10 to 9
# Method: The aqueous active ingredient composition according to the invention of Example 3 was diluted with water to three different active ingredient concentrations. For comparison purposes, the anionic dispersion D6, which is not in accordance with the invention, was studied, and α-cypermethrin was dissolved in acetone, and the solution was diluted with further acetone to give the active ingredient concentrations in question.
# To determine the limits of the efficacy of the composition according to the invention with regard to wood-destroying soil-dwelling termites (Reticulitermes santonensis), wood specimens of Pinus spp. with the dimensions 25×25×6 mm^3 (Southern Yellow Pine) were tested in accordance with the American test standard AWPA E1-97 (see, in this context, “Standard method for laboratory evaluation to determine resistance to subterranean termites”, American Wood-Preservers' Association, 2001) under constrained experimental conditions after leaching according to DIN EN 84: 1997-01 (see, in this context, “accelerated aging of treated timber before biological tests”, European standardization committee).
# The destruction of the timber caused by attack by the termites was registered after 4 weeks of testing by visually scoring the timber specimens as specified in AWPA E1-97. In addition, the mortality rate among the termites was estimated. […]
compound,measurement,value
"CC1(C)C(C=C(Cl)Cl)C1C(=O)OC(C#N)c1cccc(Oc2ccccc2)c1 (stereo not drawn) [Solution of α-cypermethrin, α-cypermethrin]",Limits of the efficacy after leaching (EN 84),29-40 g/m^3
